Read-outs that look alike come from different tables or passages of the source.
Columns and labels:
[1] = tested on: forty-four human cancer cell lines; assay: Cell proliferation assay (ATPlite, 72 hours) in the 44 cell line Oncolines panel; format: cell-based; settings: Homo sapiens
[2] = biological target: panel of more than 300 wild-type and mutant kinases (313 kinase panel) (Homo sapiens, UniProt P07947, T348I); assay: Kinase profiling in a biochemical assay panel (mobility shift assays and ELISA), %-inhibition at 1 μM; selectivity entropy; settings: kinase YES(T348I); compound at 1 μM
Chain of panel of more than 300 wild-type and mutant kinases (313 kinase panel) (Homo sapiens, UniProt P07947, T348I) (P07947 whole entry T348I): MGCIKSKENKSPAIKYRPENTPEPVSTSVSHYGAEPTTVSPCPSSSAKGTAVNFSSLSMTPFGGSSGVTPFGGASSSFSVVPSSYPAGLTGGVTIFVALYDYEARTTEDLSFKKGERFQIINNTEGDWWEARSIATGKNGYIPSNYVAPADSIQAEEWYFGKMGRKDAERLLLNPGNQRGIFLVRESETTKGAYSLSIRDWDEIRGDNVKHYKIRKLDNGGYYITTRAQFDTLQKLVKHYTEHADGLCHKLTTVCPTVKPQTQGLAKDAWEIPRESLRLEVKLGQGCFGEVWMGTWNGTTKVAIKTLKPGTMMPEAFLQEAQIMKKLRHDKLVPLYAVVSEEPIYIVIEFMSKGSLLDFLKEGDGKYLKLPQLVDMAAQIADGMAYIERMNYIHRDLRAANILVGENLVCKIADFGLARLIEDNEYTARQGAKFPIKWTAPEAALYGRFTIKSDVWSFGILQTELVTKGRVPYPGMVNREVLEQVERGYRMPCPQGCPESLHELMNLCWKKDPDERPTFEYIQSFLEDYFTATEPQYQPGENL

[3] = biological target: panel of more than 300 wild-type and mutant kinases (313 kinase panel) (Homo sapiens, UniProt P15056); assay: as above; settings: kinase BRAF; 1 μM compound
Chain of panel of more than 300 wild-type and mutant kinases (313 kinase panel) (Homo sapiens, UniProt P15056) (P15056 whole entry, stated change not applied): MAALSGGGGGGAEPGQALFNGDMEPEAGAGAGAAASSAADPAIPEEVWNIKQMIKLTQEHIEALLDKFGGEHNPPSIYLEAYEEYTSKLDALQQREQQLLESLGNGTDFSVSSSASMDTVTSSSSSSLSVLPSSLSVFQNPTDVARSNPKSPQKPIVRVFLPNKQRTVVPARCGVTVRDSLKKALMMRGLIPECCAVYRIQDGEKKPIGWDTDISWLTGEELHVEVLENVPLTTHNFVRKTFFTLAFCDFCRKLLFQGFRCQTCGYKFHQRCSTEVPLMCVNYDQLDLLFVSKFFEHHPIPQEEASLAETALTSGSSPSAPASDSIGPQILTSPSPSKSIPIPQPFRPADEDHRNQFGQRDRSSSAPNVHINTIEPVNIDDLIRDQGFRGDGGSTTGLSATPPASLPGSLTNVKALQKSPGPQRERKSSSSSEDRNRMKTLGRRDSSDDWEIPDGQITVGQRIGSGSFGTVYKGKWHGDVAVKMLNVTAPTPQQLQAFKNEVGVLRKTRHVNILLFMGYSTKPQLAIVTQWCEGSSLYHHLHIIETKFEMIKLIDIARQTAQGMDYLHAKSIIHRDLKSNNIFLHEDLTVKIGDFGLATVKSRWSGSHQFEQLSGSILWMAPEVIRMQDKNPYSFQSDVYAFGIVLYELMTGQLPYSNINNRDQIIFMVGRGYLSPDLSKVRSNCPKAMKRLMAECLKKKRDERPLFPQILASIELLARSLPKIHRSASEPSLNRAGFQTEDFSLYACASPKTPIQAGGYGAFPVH

[4] = biological target: panel of more than 300 wild-type and mutant kinases (313 kinase panel) (Homo sapiens, UniProt P15056, V600E); assay: as above; settings: kinase BRAF(V600E); 1 μM compound
Chain of panel of more than 300 wild-type and mutant kinases (313 kinase panel) (Homo sapiens, UniProt P15056, V600E) (P15056 whole entry V600E): as the sequence (P15056 whole entry, stated change not applied) above, with V600E counted along it

[5] = biological target: panel of more than 300 wild-type and mutant kinases (313 kinase panel) (Homo sapiens, UniProt P22612); assay: as above; settings: kinase PKACγ; 1 μM
[6] = biological target: T1, panel of more than 300 wild-type and mutant kinases (313 kinase panel) (Homo sapiens, UniProt P51955); assay: as above; settings: kinase NEK2; 1 μM
T1 sequence (P51955 1-445): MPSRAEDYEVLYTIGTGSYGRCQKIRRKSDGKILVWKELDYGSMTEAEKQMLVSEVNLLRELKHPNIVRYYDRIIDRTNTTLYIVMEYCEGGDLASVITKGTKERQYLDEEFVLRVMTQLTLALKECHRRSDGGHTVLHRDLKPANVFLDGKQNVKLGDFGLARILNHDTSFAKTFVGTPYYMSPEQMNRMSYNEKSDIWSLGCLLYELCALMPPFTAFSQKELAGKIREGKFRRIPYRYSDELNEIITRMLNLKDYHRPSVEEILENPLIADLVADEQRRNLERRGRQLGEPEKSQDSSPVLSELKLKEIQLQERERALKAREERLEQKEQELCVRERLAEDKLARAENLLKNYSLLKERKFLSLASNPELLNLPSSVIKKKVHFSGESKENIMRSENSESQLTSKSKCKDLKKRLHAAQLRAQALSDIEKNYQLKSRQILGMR

[7] = biological target: T2, panel of more than 300 wild-type and mutant kinases (313 kinase panel) (Homo sapiens, UniProt Q16832); assay: as above; settings: kinase DDR2; compound at 1 μM
T2 sequence (Q16832 22-855): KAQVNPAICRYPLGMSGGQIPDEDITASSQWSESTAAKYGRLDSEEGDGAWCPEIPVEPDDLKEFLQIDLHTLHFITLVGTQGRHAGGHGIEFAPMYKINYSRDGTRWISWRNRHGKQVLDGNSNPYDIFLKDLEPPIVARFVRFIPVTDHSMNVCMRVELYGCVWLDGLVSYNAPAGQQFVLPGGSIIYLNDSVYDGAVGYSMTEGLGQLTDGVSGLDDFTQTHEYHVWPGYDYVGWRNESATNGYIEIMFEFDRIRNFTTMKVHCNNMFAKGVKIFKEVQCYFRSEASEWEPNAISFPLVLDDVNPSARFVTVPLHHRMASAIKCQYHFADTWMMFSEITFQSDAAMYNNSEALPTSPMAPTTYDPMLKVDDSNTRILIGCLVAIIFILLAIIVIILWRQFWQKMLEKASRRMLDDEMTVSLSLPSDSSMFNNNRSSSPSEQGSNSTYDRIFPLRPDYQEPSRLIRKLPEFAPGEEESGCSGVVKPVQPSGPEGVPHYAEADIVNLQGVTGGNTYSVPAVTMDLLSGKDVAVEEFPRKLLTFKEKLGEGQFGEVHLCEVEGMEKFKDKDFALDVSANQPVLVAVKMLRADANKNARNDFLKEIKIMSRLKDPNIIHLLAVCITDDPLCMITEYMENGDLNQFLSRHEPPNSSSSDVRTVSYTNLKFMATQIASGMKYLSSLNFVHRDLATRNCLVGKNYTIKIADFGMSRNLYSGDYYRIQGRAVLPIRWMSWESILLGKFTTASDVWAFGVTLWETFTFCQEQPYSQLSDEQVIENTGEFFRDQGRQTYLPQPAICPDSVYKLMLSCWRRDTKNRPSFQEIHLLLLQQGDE

[8] = biological target: panel of more than 300 wild-type and mutant kinases (313 kinase panel) (Homo sapiens, UniProt Q8TDX7); assay: as above; settings: kinase NEK7; 1 μM

COc1cc2c(Nc3ccc(Br)cc3F)ncnc2cc1OCC1CCN(C)CC1 [vandetanib]
IC50 ([1]; 4-4 cell, read-out: cell panel IC50, J82): 5.08 µM
IC50 ([1]; 4-4 cell, read-out: cell panel IC50, SJCRH30): 4.02 µM
IC50 ([1]; 4-4 cell, read-out: cell panel IC50, SR): 4.15 µM
IC50 ([1]; 769-P, read-out: cell panel IC50, 769-P): 1.22 µM
IC50 ([1]; 786-0, read-out: cell panel IC50, 786-0): 4.37 µM
IC50 ([1]; A204, read-out: cell panel IC50, A-204): 2.5 µM
IC50 ([1]; A498, read-out: cell panel IC50, A-498): 3.31 µM
IC50 ([1]; A549, read-out: cell panel IC50, A-549): 5.49 µM
IC50 ([1]; A-375, read-out: cell panel IC50, A375): 3.27 µM
IC50 ([1]; A-427, read-out: cell panel IC50, A-427): 2.55 µM
IC50 ([1]; ACHN, read-out: cell panel IC50, ACHN): 2.28 µM
IC50 ([1]; AN3-CA, read-out: cell panel IC50, AN3 CA): 0.489 µM
IC50 ([1]; AU565, read-out: cell panel IC50, AU-565): 3.51 µM
IC50 ([1]; BT-20, read-out: cell panel IC50, BT-20): 14.6 µM
IC50 ([1]; BT-549, read-out: cell panel IC50, BT-549): 10 µM
IC50 ([1]; BXPC-3, read-out: cell panel IC50, BxPC-3): 2.1 µM
IC50 ([1]; C-33-A, read-out: cell panel IC50, C-33 A): 0.643 µM
IC50 ([1]; CAL-27, read-out: cell panel IC50, CAL 27): 1 µM
IC50 ([1]; CCRF-CEM, read-out: cell panel IC50, CCRF-CEM): 6.65 µM
IC50 ([1]; DLD-1, read-out: cell panel IC50, DLD-1): 6.07 µM
IC50 ([1]; FaDu, read-out: cell panel IC50, FaDu): 1.29 µM
IC50 ([1]; HCT-15, read-out: cell panel IC50, HCT-15): 7.38 µM
IC50 ([1]; HCT-116, read-out: cell panel IC50, HCT-116): 9.24 µM
IC50 ([1]; Hs-578T, read-out: cell panel IC50, Hs 578T): 3.91 µM
IC50 ([1]; Jurkat E6.1, read-out: cell panel IC50, Jurkat E6.1): 3.95 µM
IC50 ([1]; K562, read-out: cell panel IC50, K-562): 0.908 µM
IC50 ([1]; LS174T, read-out: cell panel IC50, LS 174T): 2.81 µM
IC50 ([1]; LoVo, read-out: cell panel IC50, LoVo): 1.45 µM
IC50 ([1]; MG-63, read-out: cell panel IC50, MG-63): 6.46 µM
IC50 ([1]; MOLT-4, read-out: cell panel IC50, MOLT-4): 3.4 µM
IC50 ([1]; MeWo, read-out: cell panel IC50, MeWo): 5.52 µM
IC50 ([1]; NCI-H82, read-out: cell panel IC50, NCI-H82): 7.2 µM
IC50 ([1]; NCI-H460, read-out: cell panel IC50, NCI-H460): 11.9 µM
IC50 ([1]; OVCAR-3, read-out: cell panel IC50, OVCAR-3): 3.08 µM
IC50 ([1]; RPMI-7951, read-out: cell panel IC50, RPMI-7951): 4.14 µM
IC50 ([1]; SHP77, read-out: cell panel IC50, SHP-77): 14.6 µM
IC50 ([1]; SK-N-AS, read-out: cell panel IC50, SK-N-AS): 4.23 µM
IC50 ([1]; SW48, read-out: cell panel IC50, SW48): > 31.6 µM
IC50 ([1]; SW480, read-out: cell panel IC50, SW480): 13.8 µM
IC50 ([1]; SW-620, read-out: cell panel IC50, SW620): 16.4 µM
IC50 ([1]; U2OS, read-out: cell panel IC50, U-2 OS): 4.09 µM
IC50 ([1]; U-87 MG, 72 h, read-out: IC50 in cell proliferation assay (table S5 cellpanel data)): 7.41 µM
%-inhibition of YES(T348I) [2]: 100%
%-inhibition, BRAF [3]: 24%
%-inhibition, BRAF(V600E) [4]: 18%
%-inhibition of PKACγ [5]: 6%
%-inhibition of NEK2 [6]: -7.42%
%-inhibition of DDR2 [7]: 101%
%-inhibition of NEK7 [8]: -6%

From publication PMC3961306, “Comparison of the Cancer Gene Targeting and Biochemical Selectivities of All Targeted Kinase Inhibitors Approved for Clinical Use” (PLoS ONE, 2014)
